Measured values published in patent publication US8232401B2 (Japan Tobacco Inc., priority 2002, dated 2012).

Target: T1, HIV integrase (Human immunodeficiency virus type 1 group M subtype B, UniProt P12497, F1332H)
T1 construct: HIV integrase full length gene; made in house; host or cells: Escherichia coli BL21(DE3)
Assay: Determination of enzyme (HIV integrase) inhibitory activity (strand transfer, microtiter plate, absorbance at 450 nm)
Assay type: biochemical, HIV (Human Immunodeficiency Virus (type 1))
Conditions: recombinant HIV integrase (F185H) expressed in E. coli; donor DNA on streptavidin plate, digoxigenin target DNA; 37° C.

SMILES	IC50 [nM]
CC[C@H](C)[C@@H](CO)n1cc(C(=O)O)c(=O)c2cc(Cc3cccc(Cl)c3F)c(OC)cc21 [Example 4-27, 6-(3-Chloro-2-fluorobenzyl)-1-((1S,2S)-1-hydroxymethyl-2-methylbutyl)-7-methoxy-4-oxo-1,4-dihydroquinoline-3-carboxylic acid]	2.9
O=C(O)c1cn(CCO)c2ccc(Cc3ccccc3-c3ccccc3)cc2c1=O [Example 1-86, 6-Biphenyl-2-ylmethyl-1-(2-hydroxyethyl)-4-oxo-1,4-dihydroquinoline-3-carboxylic acid]	150
O=C(O)c1cn(CCO)c2cc(F)c(Cc3cccc(Cl)c3Cl)cc2c1=O [Example 4-9, 6-(2,3-Dichlorobenzyl)-7-fluoro-1-(2-hydroxyethyl)-4-oxo-1,4-dihydroquinoline-3-carboxylic acid]	21
CCc1ccccc1Cc1ccc2c(c1)c(=O)c(C(=O)O)cn2CCO [Example 4-4, 6-(2-Ethylbenzyl)-1-(2-hydroxyethyl)-4-oxo-1,4-dihydroquinoline-3-carboxylic acid]	550
O=C(O)c1cn(CCO)c2ccc(Cc3cccc([N+](=O)[O-])c3)cc2c1=O [Example 1-67]	790
CC(=O)Cn1cc(C(=O)O)c(=O)c2cc(Cc3cccc(Cl)c3Cl)ccc21 [Example 1-14, 6-(2,3-Dichlorobenzyl)-4-oxo-1-(2-oxopropyl)-1,4-dihydroquinoline-3-carboxylic acid]	75
O=C(O)c1cn(CCO)c2ccc(Cc3cccc(Cl)c3)cc2c1=O [Example 1-31]	170
O=C(O)c1cn(CC(O)c2ccccc2)c2ccc(Cc3cccc(Cl)c3Cl)cc2c1=O (stereo not shown) [Example 1-43, 6-(2,3-Dichlorobenzyl)-1-(2-hydroxy-2-phenylethyl)-4-oxo-1,4-dihydroquinoline-3-carboxylic acid]	24
CC(C)C[C@@H](CO)n1cc(C(=O)O)c(=O)c2cc(Cc3cccc(Cl)c3F)c(OC(C)C)cc21 [Example 4-23, (S)-6-(3-Chloro-2-fluorobenzyl)-1-(1-hydroxymethyl-3-methylbutyl)-7-isopropyloxy-4-oxo-1,4-dihydroquinoline-3-carboxylic acid]	3.8
O=C(O)c1cn(CC2CCCCC2)c2ccc(Cc3cccc(Cl)c3Cl)cc2c1=O [Example 1-42, 1-Cyclohexylmethyl-6-(2,3-dichlorobenzyl)-4-oxo-1,4-dihydroquinoline-3-carboxylic acid]	130
CC(C)C[C@@H](CO)n1cc(C(=O)O)c(=O)c2cc(Cc3cccc(Cl)c3F)cc(OC(C)C)c21 [Example 4-25, (S)-6-(3-Chloro-2-fluorobenzyl)-1-(1-hydroxymethyl-3-methylbutyl)-8-isopropyloxy-4-oxo-1,4-dihydroquinoline-3-carboxylic acid]	1.9
CN(C)c1cc(Cc2cccc(Cl)c2F)cc2c(=O)c(C(=O)O)cn(CCO)c12 [Example 3-38, 6-(3-Chloro-2-fluorobenzyl)-8-dimethylamino-(2-hydroxyethyl)-4-oxo-1,4-dihydroquinoline-3-carboxylic acid]	15
CCC[C@@H](CO)n1cc(C(=O)O)c(=O)c2cc(Cc3cccc(Cl)c3F)cc(OC(C)C)c21 [Example 4-47, (S)-6-(3-Chloro-2-fluorobenzyl)-1-[1-(hydroxymethyl)butyl]-8-isopropyloxy-4-oxo-1,4-dihydroquinoline-3-carboxylic acid]	2.3
CC[C@@H](CO)n1cc(C(=O)O)c(=O)c2cc(Cc3cccc(Cl)c3F)ccc21 [Example 3-60, (S)-6-(3-Chloro-2-fluorobenzyl)-1-[1-(hydroxymethyl)propyl]-4-oxo-1,4-dihydroquinoline-3-carboxylic acid]	5.5
C[C@@H](CO)n1cc(C(=O)O)c(=O)c2cc(Cc3cccc(Cl)c3F)cc(N(C)C)c21 [Example 3-80, (S)-6-(3-Chloro-2-fluorobenzyl)-8-dimethylamino-1-(2-hydroxy-1-methylethyl)-4-oxo-1,4-dihydroquinoline-3-carboxylic acid]	8.8
CS(=O)(=O)CCn1cc(C(=O)O)c(=O)c2cc(Cc3cccc(Cl)c3Cl)ccc21 [Example 1-41, 6-(2,3-Dichlorobenzyl)-1-(2-methanesulfonylethyl)-4-oxo-1,4-dihydroquinoline-3-carboxylic acid]	210
O=C(O)c1cn(CCO)c2ccc(Cc3c(F)ccc(F)c3Cl)cc2c1=O [Example 1-73, 6-(2-Chloro-3,6-difluorobenzyl)-1-(2-hydroxyethyl)-4-oxo-1,4-dihydroquinoline-3-carboxylic acid]	31
CS(=O)(=O)NCCn1cc(C(=O)O)c(=O)c2cc(Cc3cccc(Cl)c3Cl)ccc21 [Example 1-3, 6-(2,3-Dichlorobenzyl)-1-(2-methanesulfonylaminoethyl)-4-oxo-1,4-dihydroquinoline-3-carboxylic acid]	360
CCOc1ccccc1Cc1ccc2c(c1)c(=O)c(C(=O)O)cn2CCO [Example 4-13, 6-(2-Ethoxybenzyl)-1-(2-hydroxyethyl)-4-oxo-1,4-dihydroquinoline-3-carboxylic acid]	300

SMILES	IC50 [nM]
CC(C)(CO)n1cc(C(=O)O)c(=O)c2cc(Cc3cccc(Cl)c3F)ccc21 [Example 3-43, 6-(3-Chloro-2-fluorobenzyl)-1-(1,1-dimethyl-2-hydroxyethyl)-4-oxo-1,4-dihydroquinoline-3-carboxylic acid]	18
CC[C@@H](CO)n1cc(C(=O)O)c(=O)c2cc(Cc3cccc(Cl)c3F)cc(OC)c21 [Example 3-79, (S)-6-(3-Chloro-2-fluorobenzyl)-1-[1-(hydroxymethyl)propyl]-8-methoxy-4-oxo-1,4-dihydroquinoline-3-carboxylic acid]	6.7
O=C(O)c1cn(CC(F)(F)F)c2ccc(Cc3cccc(Cl)c3Cl)cc2c1=O [Example 1-27, 6-(2,3-Dichlorobenzyl)-1-(2,2,2-trifluoroethyl)-4-oxo-1,4-dihydroquinoline-3-carboxylic acid]	76
NS(=O)(=O)Cn1cc(C(=O)O)c(=O)c2cc(Cc3c(F)cccc3Cl)ccc21 [Example 1-75, 6-(2-Chloro-6-fluorobenzyl)-1-sulfamoylmethyl-4-oxo-1,4-dihydroquinoline-3-carboxylic acid]	16
O=C(O)c1cn(CCCCc2ccccc2)c2ccc(Cc3cccc(Cl)c3Cl)cc2c1=O [Example 1-19, 6-(2,3-Dichlorobenzyl)-1-(4-phenylbutyl)-4-oxo-1,4-dihydroquinoline-3-carboxylic acid]	81
CC(C)Oc1cc2c(cc1Cc1cccc(Cl)c1F)c(=O)c(C(=O)O)cn2CCO [Example 3-53, 6-(3-Chloro-2-fluorobenzyl)-1-(2-hydroxyethyl)-7-isopropyloxy-4-oxo-1,4-dihydroquinoline-3-carboxylic acid]	7.9
CC(=O)Nc1cc(Cc2cccc(Cl)c2F)cc2c(=O)c(C(=O)O)cn(CCO)c12 [Example 3-39, 8-Acetylamino-6-(3-chloro-2-fluorobenzyl)-1-(2-hydroxyethyl)-4-oxo-1,4-dihydroquinoline-3-carboxylic acid]	49
O=C(O)c1cn(Cc2cc3ccccc3s2)c2ccc(Cc3cccc(Cl)c3Cl)cc2c1=O [Example 1-22, 1-Benzo[b]thiophen-2-ylmethyl-6-(2,3-dichlorobenzyl)-4-oxo-1,4-dihydroquinoline-3-carboxylic acid]	110
O=C(O)c1cn(CCCCCO)c2ccc(Cc3cccc(Cl)c3Cl)cc2c1=O [Example 1-34, 6-(2,3-Dichlorobenzyl)-1-(5-hydroxypentyl)-4-oxo-1,4-dihydroquinoline-3-carboxylic acid]	350
C[C@@H](CO)n1cc(C(=O)O)c(=O)c2cc(Cc3cccc(Cl)c3F)ccc21 [Example 3-23, (S)-6-(3-Chloro-2-fluorobenzyl)-1-(2-hydroxy-1-methylethyl)-4-oxo-1,4-dihydroquinoline-3-carboxylic acid]	7.2
COc1cc2c(cc1Cc1cccc(Cl)c1F)c(=O)c(C(=O)O)cn2[C@H](CO)C(C)(C)C [Example 4-33, (S)-6-(3-Chloro-2-fluorobenzyl)-1-[2,2-dimethyl-1-(hydroxymethyl)propyl]-7-methoxy-4-oxo-1,4-dihydroquinoline-3-carboxylic acid]	2
CCOc1cc(Cc2cccc(Cl)c2F)cc2c(=O)c(C(=O)O)cn([C@H](CO)C3CCCCC3)c12 [Example 4-41, (S)-6-(3-Chloro-2-fluorobenzyl)-1-(1-cyclohexyl-2-hydroxyethyl)-8-ethoxy-4-oxo-1,4-dihydroquinoline-3-carboxylic acid]	2.3
CCCn1cc(C(=O)O)c(=O)c2cc(Cc3cccc(Cl)c3Cl)ccc21 [Example 1-38, 6-(2,3-Dichlorobenzyl)-4-oxo-1-propyl-1,4-dihydroquinoline-3-carboxylic acid]	170
CCCOc1cc2c(cc1Cc1cccc(Cl)c1F)c(=O)c(C(=O)O)cn2CCO [Example 3-49, 6-(3-Chloro-2-fluorobenzyl)-1-(2-hydroxyethyl)-4-oxo-7-propyloxy-1,4-dihydroquinoline-3-carboxylic acid]	7.9
O=C(O)c1cn([C@H](CO)CC2CCCCC2)c2ccc(Cc3cccc(Cl)c3F)cc2c1=O [Example 4-22, (S)-6-(3-Chloro-2-fluorobenzyl)-1-[2-cyclohexyl-1-(hydroxymethyl)ethyl]-4-oxo-1,4-dihydroquinoline-3-carboxylic acid]	2.9
Cc1ccc(Cl)c(Cc2ccc3c(c2)c(=O)c(C(=O)O)cn3CCO)c1 [Example 1-97, 6-(2-Chloro-5-methylbenzyl)-1-(2-hydroxyethyl)-4-oxo-1,4-dihydroquinoline-3-carboxylic acid]	130
O=C(O)c1cn(CCO)c2cc(Cl)c(Cc3cccc(Cl)c3Cl)cc2c1=O [Example 3-21, 7-Chloro-6-(2,3-dichlorobenzyl)-1-(2-hydroxyethyl)-4-oxo-1,4-dihydroquinoline-3-carboxylic acid]	30
CNn1cc(C(=O)O)c(=O)c2cc(Cc3cccc(Cl)c3Cl)ccc21 [Example 2-7, 6-(2,3-Dichlorobenzyl)-1-methylamino-4-oxo-1,4-dihydroquinoline-3-carboxylic acid]	79
